For one experiment, the target named is T1, human orexin-1 receptor (Homo sapiens, UniProt O43613).
T1 construct: expressed in transfected cells; host or cells: CHO (Chinese hamster ovary) cells, G418 selection
T1 sequence (O43613 1-425): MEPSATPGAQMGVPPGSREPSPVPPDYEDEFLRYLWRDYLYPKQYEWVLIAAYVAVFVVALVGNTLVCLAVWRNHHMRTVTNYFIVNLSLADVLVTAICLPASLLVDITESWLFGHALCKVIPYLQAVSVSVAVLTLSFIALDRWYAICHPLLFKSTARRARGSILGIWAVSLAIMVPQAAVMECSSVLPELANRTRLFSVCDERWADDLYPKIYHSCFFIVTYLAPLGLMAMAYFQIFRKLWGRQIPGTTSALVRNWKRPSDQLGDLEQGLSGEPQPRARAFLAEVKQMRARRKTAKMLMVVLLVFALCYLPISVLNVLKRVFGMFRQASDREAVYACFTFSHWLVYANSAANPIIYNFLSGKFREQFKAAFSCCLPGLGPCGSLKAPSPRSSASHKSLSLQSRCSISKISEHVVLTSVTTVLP
As to the kind of experiment: Intracellular calcium measurements (FLIPR), orexin receptor antagonistic activity, OX1. The experiment is classed as cell-based. Particulars: CHO cells expressing the human orexin-1 receptor, 10 nM orexin-A as agonist. The procedure: (§1) The orexin receptor antagonistic activity of the compounds of formula (I) is determined in accordance with the following experimental method.
(§2) Intracellular Calcium Measurements:
(§3) Chinese hamster ovary (CHO) cells expressing the human orexin-1 receptor and the human orexin-2 receptor, respectively, are grown in culture medium (Ham F-12 with L-Glutamine) containing 300 μg/ml G418, 100 U/ml penicillin, 100 μg/ml streptomycin and 10% inactivated fetal calf serum (FCS). The cells are seeded at 80′000 cells/well into 96-well black clear bottom sterile plates (Costar) which have been precoated with 1% gelatine in Hanks' Balanced Salt Solution (HBSS). All reagents are from Gibco BRL. The seeded plates are incubated overnight at 37° C. in 5% CO2.
(§4) Human orexin-A as an agonist is prepared as 1 mM stock solution in MeOH:water (1:1), diluted in HBSS containing 0.1% bovine serum albumin (BSA) and 2 mM HEPES for use in the assay at a final concentration of 10 nM.
(§5) Antagonists are prepared as 10 mM stock solution in DMSO, then diluted in 96-well plates, first in DMSO, then in HBSS containing 0.1% bovine serum albumin (BSA) and 2 mM HEPES.
(§6) On the day of the assay, 100 μl of loading medium (HBSS containing 1% FCS, 2 mM HEPES, 5 mM probenecid (Sigma) and 3 μM of the fluorescent calcium indicator fluo-3 AM (1 mM stock solution in DMSO with 10% pluronic acid) (Molecular Probes) is added to each well.
(§7) The 96-well plates are incubated for 60 min at 37° C. in 5% CO2. The loading solution is then aspirated and cells are washed 3 times with 200 μl HBSS containing 2.5 mM probenecid, 0.1% BSA, 2 mM HEPES. 100 μl of that same buffer is left in each well.
(§8) Within the Fluorescent Imaging Plate Reader (FLIPR, Molecular Devices), antagonists are added to the plate in a volume of 50 μl, incubated for 20 min and finally 100 μl of agonist is added. Fluorescence is measured for each well at 1 second intervals, and the height of each fluorescence peak is compared to the height of the fluorescence peak induced by 10 nM orexin-A with buffer in place of antagonist. For each antagonist, IC50 value (the concentration of compound needed to inhibit 50% of the agonistic response) is determined.

The target of the next experiment is T2, human orexin-2 receptor (Homo sapiens, UniProt O43614).
T2 construct: expressed in transfected cells; host or cells: CHO (Chinese hamster ovary) cells, G418 selection
T2 sequence (O43614 1-444): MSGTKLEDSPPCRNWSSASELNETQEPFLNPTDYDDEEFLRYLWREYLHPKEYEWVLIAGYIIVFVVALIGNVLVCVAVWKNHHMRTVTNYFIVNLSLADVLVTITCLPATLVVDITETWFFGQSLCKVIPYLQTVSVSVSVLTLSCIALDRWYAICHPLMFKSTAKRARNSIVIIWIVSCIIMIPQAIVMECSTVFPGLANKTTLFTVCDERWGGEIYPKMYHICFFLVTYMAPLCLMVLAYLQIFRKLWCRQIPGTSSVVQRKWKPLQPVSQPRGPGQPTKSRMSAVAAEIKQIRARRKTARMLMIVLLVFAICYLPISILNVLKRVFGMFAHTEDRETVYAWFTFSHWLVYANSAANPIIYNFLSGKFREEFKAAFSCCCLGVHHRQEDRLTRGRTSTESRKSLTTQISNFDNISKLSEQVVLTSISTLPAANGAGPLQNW
As to the kind of experiment: Intracellular calcium measurements (FLIPR), orexin receptor antagonistic activity, OX2. The experiment is classed as cell-based. Particulars: CHO cells expressing the human orexin-2 receptor, 10 nM orexin-A as agonist. The protocol:
as §1, §2, §3, §4, §5, §6, §7, §8

Take `Cc1nc(C(=O)N2[C@H](CNC(=O)c3noc4ccccc34)C[C@@H]3C[C@@H]32)c(-c2cccc(Cl)c2)s1` [Example 147, Benzo[d]isoxazole-3-carboxylic acid {(1S,3S,5S)-2-[5-(3-chloro-phenyl)-2-methyl-thiazole-4-carbonyl]-2-aza-bicyclo[3.1.0]hex-3-ylmethyl}-amide]: the values for the IC50 on human orexin-1 receptor and on human orexin-2 receptor were 51 nM and 74 nM, respectively.

With `Cc1nc2sccn2c1C(=O)NC[C@@H]1C[C@@H]2C[C@@H]2N1C(=O)c1nc(N(C)C)sc1-c1ccccc1` [Example 246, 6-Methyl-imidazo[2,1-b]thiazole-5-carboxylic acid [(1S,3S,5S)-2-(2-dimethylamino-5-phenyl-thiazole-4-carbonyl)-2-aza-bicyclo[3.1.0]hex-3-ylmethyl]-amide], the IC50 at human orexin-1 receptor is 20 nM; at human orexin-2 receptor, 44 nM.

Regarding `O=C(NC[C@@H]1C[C@@H]2C[C@@H]2N1C(=O)c1ccccc1-c1cccc(Cl)c1)c1cccc2occc12` [Example 8, benzofuran-4-carboxylic acid [(1S,3S,5S)-2-(3′-chloro-biphenyl-2-carbonyl)-2-aza-bicyclo[3.1.0]hex-3-ylmethyl]-amide], the IC50 at human orexin-1 receptor was determined as 45 nM; at human orexin-2 receptor, 78 nM.

In the case of `Cc1cccc(-c2sc(N)nc2C(=O)N2[C@H](CNC(=O)c3cccc(Br)c3)C[C@@H]3C[C@@H]32)c1` [Example 163, N-[(1S,3S,5S)-2-(2-Amino-5-m-tolyl-thiazole-4-carbonyl)-2-aza-bicyclo[3.1.0]hex-3-ylmethyl]-3-bromo-benzamide], the values for the IC50 at human orexin-1 receptor and on human orexin-2 receptor were 62 nM and 57 nM, respectively.

Consider `Cc1nc2sccn2c1C(=O)NC[C@@H]1C[C@@H]2C[C@@H]2N1C(=O)c1ccccc1-c1cccc(Cl)c1` [Example 17, 6-methyl-imidazo[2,1-b]thiazole-5-carboxylic acid [(1S,3S,5S)-2-(3′-chloro-biphenyl-2-carbonyl)-2-aza-bicyclo[3.1.0]hex-3-ylmethyl]-amide], for which the values for the IC50 on human orexin-1 receptor and at human orexin-2 receptor were 15 nM and 60 nM, respectively.

`Cc1nc(C(=O)N2[C@H](CNC(=O)c3cccc4c3CCO4)C[C@@H]3C[C@@H]32)c(-c2cccc(F)c2C)s1` [Example 199, 2,3-Dihydro-benzofuran-4-carboxylic acid {(1S,3S,5S)-2-[5-(3-fluoro-2-methyl-phenyl)-2-methyl-thiazole-4-carbonyl]-2-aza-bicyclo[3.1.0]hex-3-ylmethyl}-amide]: the concentration for half-maximal inhibition (IC50) is 139 nM at human orexin-1 receptor and 41 nM at human orexin-2 receptor.

With `O=C(NC[C@@H]1C[C@@H]2C[C@@H]2N1C(=O)c1ncsc1-c1cccc(Cl)c1)c1cccc2c1CCO2` [Example 212, 2,3-Dihydro-benzofuran-4-carboxylic acid {(1S,3S,5S)-2-[5-(3-chloro-phenyl)-thiazole-4-carbonyl]-2-aza-bicyclo[3.1.0]hex-3-ylmethyl}-amide], the IC50 at human orexin-1 receptor came to 109 nM; on human orexin-2 receptor, 102 nM.

As to `Cc1cccc(-c2sc(C)nc2C(=O)N2[C@H](CNC(=O)c3ccc4ccccc4n3)C[C@@H]3C[C@@H]32)c1` [Example 93, Quinoline-2-carboxylic acid [(1S,3S,5S)-2-(2-methyl-5-m-tolyl-thiazole-4-carbonyl)-2-aza-bicyclo[3.1.0]hex-3-ylmethyl]-amide], the IC50 on human orexin-1 receptor was 14 nM; at human orexin-2 receptor, 40 nM.

Turning to `O=C(c1nc(C2CC2)sc1-c1ccccc1)N1[C@H](CNc2ncc(Br)cn2)C[C@@H]2C[C@@H]21` [Example 265, {(1S,3S,5S)-3-[(5-Bromo-pyrimidin-2-ylamino)-methyl]-2-aza-bicyclo[3.1.0]hex-2-yl}-(2-cyclopropyl-5-phenyl-thiazol-4-yl)-methanone], the values for the IC50 on human orexin-1 receptor and at human orexin-2 receptor were 131 nM and 68 nM, respectively.

As for `Cc1nc(C(=O)N2[C@H](CNC(=O)c3nccc4ccccc34)C[C@@H]3C[C@@H]32)c(-c2cccc(F)c2)s1` [Example 38, isoquinoline-1-carboxylic acid {(1S,3S,5S)-2-[5-(3-fluoro-phenyl)-2-methyl-thiazole-4-carbonyl]-2-aza-bicyclo[3.1.0]hex-3-ylmethyl}-amide], the results for the IC50 at human orexin-1 receptor and at human orexin-2 receptor were 104 nM and 358 nM, respectively.

Source of the values: patent US8288435B2, “2-aza-bicyclo[3.1.0]hexane derivatives as orexin receptor antagonists” (Actelion Pharmaceuticals Ltd., priority 2006, dated 2012).
